Measured values: patent US20200368371A1, “DYE-PROTEIN COMPLEX FOR NIR II AND PHOTOACOUSTIC IMAGING” (The Board of Trustees of the Leland Stanford Junior …, priority 2019, published 2020)

Legend:
[1] = Fluorescence intensity at different concentrations of IR-820 in deionized water and PBS; format: physicochemical
Experimental: IR-820 was first dissolved in deionized water, and then added to deionized water or PBS to determine the optimal concentration. […] 10 μM was determined as the concentration for other studies. […] Different HSA: IR-820 ratios were prepared while keeping IR-820 at a constant 10 μM to determine the approximate binding stoichiometry.

[2] = Absorbance spectra in deionized water; format: physicochemical; conditions: DI water
From the text: Absorbance spectra of IR-820 and complexes were taken on an ultraviolet-visible-NIR Cary 60 spectrometer (Agilent Technologies) with background correction.

C57BL/6 mice = assay: In vivo NIR-II imaging of lymphatic system
Experimental: A gentle massage was performed on the injection site for faster diffusion into the lymphatic system.
Before imaging, all mice were anesthetized in a rodent anesthesia machine with 2 L/min O^2 gas mixed with 3% Soflurane. C57BL/6 mice were used for the vascular and lymphatic system NIR-II imaging. […] A gentle massage was performed at the injection site to increase the speed of diffusion into the lymphatic system. […] All groups within the study contained n=3 mice.
All NIR-II images were collected on a two-dimensional InGaAs array NIR-II system (Princeton Instruments). The excitation was provided by an 808 nm diode laser through an optical fiber and collimator. Fluorescence emission was collected with 1000 nm or more than 1000 nm long-pass filters (Thorlabs). A lens set was used to obtain tunable magnifications ranging from 1× (whole body) to 2.5× (high magnification) by changing the relative position of two NIR achromats (75 mm and 200 mm, Thorlabs). Image J software were used for analyzing the images.
The fluorescence measurement was performed to quantify NIR-II fluorescence signal intensity through the Image J software (National Institutes of Health, Bethesda, Md.). The line graphs and Gaussian-fitted FWHM were analysis by origin 8.5 (OriginLab Corporation, Northampton, Mass.).

[3] = all light conditions; cited from earlier work
[4] = prone position, subcutaneous footpad injection

CC1(C)C(=CC=C2CCCC(C=CC3=[N+](CCCCS(=O)(=O)[O-])c4ccc5ccccc5c4C3(C)C)=C2Cl)N(CCCCS(=O)(=O)[O-])c2ccc3ccccc3c21.[Na+] [IR-820]
behaviour in PBS [1]: poor solubility or severe quenching
absorbance strong peak [2]: 690 nm
absorbance weak shoulder [2]: 815 nm
identification of the inguinal lymph node (C57BL/6 mice; left side, subcutaneous injection): failed
FWHM of lymphatic vessels (C57BL/6 mice; [4]): unmeasurable
SBR of lymphatic vessels (C57BL/6 mice; [4]): 1.33
stability in aqueous solution [3]: greater stability than ICG
